Assay results reported in article PMC12257542, “A Radiolabeled Photoswitchable G Protein-Coupled Receptor Antagonist Enlightens Ligand Binding Kinetics Associated with Photoswitching” (Journal of the American Chemical Society, 2025).
Where two headings read alike, the source gives them in different places.

What was measured:
[1] = Photostationary state area percentages by LC-MS at the isosbestic point; format: physicochemical
[2] = target: T1, H1R (Homo sapiens, UniProt P35367); experiment: Histamine receptor selectivity binding, [3H]mepyramine competition on cell homogenates expressing H1R; conditions: trans isomer; at concentrations lower than 1 μM; competition with [3H]mepyramine
T1 construct: HA; expressed in transfected cells; host or cells: HEK293T, transient transfection (pcDEF3), cell homogenates
T1 sequence (P35367 whole entry): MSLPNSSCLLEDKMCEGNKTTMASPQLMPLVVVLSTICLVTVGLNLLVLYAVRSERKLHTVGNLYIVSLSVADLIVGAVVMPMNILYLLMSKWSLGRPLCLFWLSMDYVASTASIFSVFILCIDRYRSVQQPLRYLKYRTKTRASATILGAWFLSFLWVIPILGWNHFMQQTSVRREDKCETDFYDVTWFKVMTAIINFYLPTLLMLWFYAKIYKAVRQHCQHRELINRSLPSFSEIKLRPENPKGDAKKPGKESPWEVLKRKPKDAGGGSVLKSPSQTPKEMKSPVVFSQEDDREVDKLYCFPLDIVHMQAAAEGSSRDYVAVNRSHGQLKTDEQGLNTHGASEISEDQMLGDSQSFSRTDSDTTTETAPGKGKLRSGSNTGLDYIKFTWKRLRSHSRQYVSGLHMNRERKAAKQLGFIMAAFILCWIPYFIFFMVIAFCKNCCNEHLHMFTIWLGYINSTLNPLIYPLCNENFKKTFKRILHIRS

[3] = Thermal relaxation of PSS cis states (Arrhenius extrapolation); format: physicochemical; conditions: approximate; HBSS buffer + 1% DMSO, extrapolated to 20 °C
Method: (§1) Experimental procedures – Photochemistry
(§2) UV−Vis spectra were recorded using a Thermo-scientific Evolution 201 PC spectrophotometer equipped with a thermostated cell holder set at 20 °C. Fits of UV−vis spectroscopy data were generated using Prism 10.1.0. Illumination for almost all photochemical experiments was executed using a Sutter instruments Lambda LS with a 300 W full-spectrum lamp connected to a Sutter instruments Lambda 10-3 optical filter changer equipped with 360 ± 10 nm, 434 ± 9 nm 494 ± 9 nm, or a Lambda 721 optical beam combiner system equipped with 365 ± 11 nm and 506 ± 14 nm filter. The light intensity used for the lambda 10-3 optical filter is 0.93 mW/mm2 using the 360 ± 20 nm filter, 0.79 mW/mm2 for the 434 ± 9 nm filter, 0.77 mW/mm2 for the 494 ± 9 nm filter as measured using a Thorlabs PM16−401 power meter. The light intensity used for the lambda 721 optical beam combiner is 200 mW using the 365 ± 11 nm filter and 60 mW for the 506 ± 12 nm filter. For photochemical analyses, illuminations were performed in Hellma Suprasil quartz 114QS cuvettes. For the dynamic illuminations, a 4-way cuvette holder (Avantes) was used. The left outlet of the holder is connected to an Avantes AvaLight-DH-S-BAL Deuterium lamp. The right outlet is connected through a fiber to an AvaSpec UV/Vis spectrometer. The lower outlet is connected to a Lambda 721 optical beam combiner system equipped with 365 ± 11 nm and 506 ± 14 nm filter illumination means. The upper outlet is covered with a black cap. The temperature of the solution in the cuvette (20 °C) is controlled by Q-blue Wireless Temperature Control software.
Thermal relaxation experiments and Arrhenius extrapolations were performed according to Priimagi et al20, using a compound concentration of 25 μM in HBSS +1% DMSO and temperatures of 50, 60, and 70 °C. Illuminations for pharmacological experiments were performed in cylindrical clear glass vials with a volume of 4.5 mL. The typical distance between light source and vial or cuvette was 2 cm.

[4] = UV-vis spectra of trans and PSS cis states in HBSS buffer; format: physicochemical; conditions: 25 μM in HBSS buffer containing 1% DMSO
Method: as §1
as §2, with “software. […]” for “software.”
The typical distance […]
between light source and vial or cuvette was 2 cm.

[5] = target: H3R (Homo sapiens, UniProt Q9Y5N1); experiment: Functional H3R NanoBiT-PKA (cAMP sensor) assay in transiently transfected HEK293T cells; format: cell-based
H3R, sequence (Q9Y5N1 whole entry): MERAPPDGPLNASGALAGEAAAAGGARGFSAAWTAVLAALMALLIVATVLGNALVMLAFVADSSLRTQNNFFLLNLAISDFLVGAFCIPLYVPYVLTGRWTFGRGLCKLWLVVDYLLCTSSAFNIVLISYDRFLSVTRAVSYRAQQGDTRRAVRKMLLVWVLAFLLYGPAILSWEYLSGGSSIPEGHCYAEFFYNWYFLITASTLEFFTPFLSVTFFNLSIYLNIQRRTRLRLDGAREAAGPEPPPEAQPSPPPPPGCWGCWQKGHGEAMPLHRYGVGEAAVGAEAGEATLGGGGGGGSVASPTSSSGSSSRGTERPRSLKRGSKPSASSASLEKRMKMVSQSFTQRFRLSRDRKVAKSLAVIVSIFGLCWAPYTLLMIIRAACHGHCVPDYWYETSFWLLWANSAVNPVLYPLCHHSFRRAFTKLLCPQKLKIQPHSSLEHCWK

[6] = target: hH3R (Homo sapiens, UniProt Q9Y5N1); experiment: Competition binding of non-labeled ligands with trans-[3H]3f on hH3R-expressing cell homogenates; conditions: read-out: pKi in competition with trans-[3H]3f (converted)
hH3R, sequence (Q9Y5N1 whole entry): as above

[7] = target: Nluc-H2R (Homo sapiens, UniProt P25021); format: binding; conditions: trans isomer; at concentrations lower than 1 μM; competition with 50 nM UR-KAT478
Nluc-H2R, sequence (P25021 whole entry): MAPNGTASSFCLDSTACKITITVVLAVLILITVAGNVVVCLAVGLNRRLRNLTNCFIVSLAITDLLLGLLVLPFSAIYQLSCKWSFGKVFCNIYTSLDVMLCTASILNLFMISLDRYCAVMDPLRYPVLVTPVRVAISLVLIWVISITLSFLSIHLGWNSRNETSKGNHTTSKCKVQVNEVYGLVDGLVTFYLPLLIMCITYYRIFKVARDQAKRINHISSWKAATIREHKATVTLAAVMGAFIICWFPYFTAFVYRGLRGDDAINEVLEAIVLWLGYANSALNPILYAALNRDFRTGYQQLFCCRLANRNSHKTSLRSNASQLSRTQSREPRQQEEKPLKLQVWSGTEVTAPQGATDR

[8] = target: T2, H4R (Homo sapiens, UniProt Q9H3N8); experiment: Histamine receptor selectivity binding, [3H]histamine competition on cell homogenates expressing H4R; conditions: trans isomer; at concentrations lower than 1 μM; competition with [3H]histamine
T2 construct: HA; expressed in transfected cells; host or cells: HEK293T, transient transfection (pcDEF3), cell homogenates

[9] = Nephelometry (qualitative solubility comparison); format: physicochemical; conditions: trans state for VUF14862, either state for 3f
[10] = target: T3, mouse H3R (Mus musculus, UniProt P58406); experiment: [3H]NAMH competition radioligand binding on mH3R-expressing cell homogenates
T3 construct: expressed in transfected cells; host or cells: HEK293T, transient transfection (pcDEF3), cell homogenates
T3 sequence (P58406 whole entry): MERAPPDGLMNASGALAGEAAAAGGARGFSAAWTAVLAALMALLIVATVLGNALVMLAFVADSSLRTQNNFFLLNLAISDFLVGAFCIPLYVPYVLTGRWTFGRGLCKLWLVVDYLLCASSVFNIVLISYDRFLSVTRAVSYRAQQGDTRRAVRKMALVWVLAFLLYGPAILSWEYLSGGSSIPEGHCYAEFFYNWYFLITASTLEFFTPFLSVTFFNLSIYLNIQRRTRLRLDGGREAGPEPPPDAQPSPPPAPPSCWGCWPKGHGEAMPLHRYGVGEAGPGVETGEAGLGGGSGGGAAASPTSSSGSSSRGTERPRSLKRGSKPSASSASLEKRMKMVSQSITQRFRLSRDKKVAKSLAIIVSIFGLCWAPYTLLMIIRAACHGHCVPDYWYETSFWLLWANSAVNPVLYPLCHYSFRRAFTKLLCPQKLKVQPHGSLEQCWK
Method: Figure S15. Histamine receptor selectivity binding experiments. Concentration binding curves of trans-3f on cell homogenates expressing H1R (in competition with 4.0-4.8 nM [3H]mepyramine) or H4R (competition with 1.9-2.4 nM [3H]histamine. H2R binding was […]
KAT478). Pooled data of three independent experiments are shown as mean ± SEM.
Figure S16. Radioligand binding experiments with 3f on mH3R-expressing cell homogenates in competition with [3H]NAMH (1.4-1.7 nM). Pooled data of three independent experiments […]
Experimental procedures - Pharmacology […]
were purchased from Promega.
HEK293T cells stably expressing
48 hours post transfection,
[3H]3f binding experiments […]
by sonication (Sonifier Branson).
RT) containing 0.8% ethanol.
The incubation was terminated by
H2R selectivity was assessed
Cells were incubated with ligands

PSScis (area %cis) ([1]; after illumination of trans isomer with 365 ± 10 nm at 1 mM in DMSO for 10 min): 98 area % | PSStrans (area %trans) ([1]; illumination of PSS cis state with 506 ± 20 nm at 1 mM in DMSO for 10 min): 93 area % | binding to H1R [2]: does not bind | Half-life (thermal relaxation of PSS cis state) [3]: 13 days | λmax cis [4]: 439 nm | λmax trans [4]: 348 nm | block of the H3R agonist response ([5]; 100 nM trans-3f preincubated, 10 nM immethridine, dark): approximately 80% | reversal of the response, % of the maximal agonist response ([5]; 100 nM trans-3f, 10 nM immethridine, after 365 nm LED light 10 min, 2 mW): approximately 80% | IC50 ([5]; 365 nm 10 min (second cycle), 10 nM immethridine, read-out: pIC50, dynamic trans-3f switching step 4 (converted)): 398 nM | IC50 ([5]; 365 nm 10 min, 10 nM immethridine, read-out: pIC50, dynamic trans-3f switching step 2 (converted)): 794 nM | IC50 ([5]; 500 nm 10 min (second cycle), 10 nM immethridine, read-out: pIC50, dynamic trans-3f switching step 5 (converted)): 50.1 nM | IC50 ([5]; 500 nm 10 min, 10 nM immethridine, read-out: pIC50, dynamic trans-3f switching step 3 (converted)): 50.1 nM | IC50 ([5]; PSS cis (pre-illuminated trans-3f), competition with 10 nM immethridine, 15 min incubation, read-out: pIC50 3f-PSScis (converted)): 398 nM | IC50 ([5]; no irradiation (dark), 10 nM immethridine, read-out: pIC50, dynamic trans-3f switching step 1 (converted)): 20 nM | IC50 ([5]; trans isomer, competition with 10 nM immethridine, 15 min incubation, read-out: pIC50 trans-3f (converted)): 31.6 nM | Fold IC50 shift ([5]; trans-3f versus 3f-PSS cis): 12.6 fold | Ki ([6]; unlabeled PSS cis state): 20 nM | Ki ([6]; unlabeled trans isomer): 1 nM | binding to H2R [7]: does not bind | binding to H4R [8]: does not bind | concentrations with tendency to aggregate/precipitate [9]: not observed | Ki ([10]; trans isomer, [3H]NAMH (1.4-1.7 nM), read-out: pKi mouse H3R (converted)): 1.58 nM | fold shift in affinity upon photoisomerization to PSS cis (mouse H3R) ([10]; trans versus PSS cis): 42 fold
Compound: Cc1nn(C2CCN(C)CC2)c(C)c1/N=N/c1ccc(O[C@H]2C[C@H](N3CCCCC3)C2)cc1 [Compound 3f]
